Reference: US20250243196A1, “CITRON KINASE INHIBITORS” (The Cleveland Clinic Foundation, priority 2021, published 2025)

Experiments:
PKAα = PKAα (Homo sapiens (Human), UniProt P17612); assay: KinaseProfiler radiometric assay (14-440KP); format: biochemical; details: mean of at least two independent experiments
Source text: (§1) In another aspect, disclosed is a method of inhibiting citron kinase in a sample, comprising contacting the sample with a compound described herein (e.g., a compound of formula (I) or a pharmaceutically acceptable salt thereof), or a pharmaceutical composition described herein (e.g., a pharmaceutical composition comprising a compound of formula (I) or a pharmaceutically acceptable salt thereof), in an amount effective to inhibit citron kinase. In some embodiments, the step of contacting the sample with the compound comprises administering the compound to a subject (e.g., a subject) suffering from cancer. Methods of determining kinase inhibition are well known in the art. For example, kinase activity of an enzyme and the inhibitory capacity of a test compound can be determined by measuring enzyme specific phosphorylation of a substrate. Commercial assays and kits can be employed. For example, kinase inhibition can be determined using a radiometric binding assay, such as using KinaseProfiler™ technology (Eurofins Discovery). This assay method directly detects product formation without the use of modified substrates or coupling enzymes. Test compounds are incubated with kinase, substrate, required cofactors and radioisotope labeled ATP. Following incubation, unreacted radioactive ATP is removed by washing and incorporation of the radiolabeled phosphate into the kinase substrate is assayed to detect phosphoryltransferase activity, which is directly proportional to the amount of phosphorylated substrate. Inhibition of the kinase by a kinase inhibitor prevents phosphorylation of the substrate and thereby limits the incorporation of radiolabeled phosphate. Such an assay is compatible with a microwell assay format, allowing simultaneous determination of IC50 of multiple compounds.
(§2) The effect of various compounds on the inhibition of other kinases has also been determined. Table 2 reports measured IC50 values; value units are nanomolar inhibition.

AUR-B = AUR-B (Homo sapiens (Human), UniProt Q96GD4); assay: KinaseProfiler radiometric assay (14-835KP); format: biochemical; details: mean of at least two independent experiments
Source text: as §1, §2

TRK-B = TRK-B (Homo sapiens (Human), UniProt Q16620); assay: KinaseProfiler radiometric assay (14-507KP); format: biochemical; details: mean of at least two independent experiments
Source text: as §1, §2

ROCK-1 = ROCK-1 (Homo sapiens (Human), UniProt Q13464); assay: KinaseProfiler radiometric assay (14-601KP); format: biochemical; details: mean of at least two independent experiments
Source text: as §1, §2

AKT-1 = AKT-1 (Homo sapiens (Human), UniProt P31749); assay: KinaseProfiler radiometric assay (14-276KP); format: biochemical; details: mean of at least two independent experiments
Source text: as §1, §2

HIPK4 = HIPK4 (Homo sapiens (Human), UniProt Q8NE63); assay: KinaseProfiler radiometric assay (15-003KP); format: biochemical; details: mean of at least two independent experiments
Source text: as §1, with “Test compounds are incubated with kinase, substrate, required cofactors and radioisotope labeled ATP. Following incubation, unreacted radioactive ATP is removed by washing and incorporation of the radiolabeled phosphate into the kinase substrate is assayed to detect phosphoryltransferase activity, which is directly proportional to the amount of phosphorylated substrate. Inhibition of the kinase by a kinase inhibitor prevents phosphorylation of the substrate and thereby limits the incorporation of radiolabeled phosphate. Such an assay is compatible with a microwell assay format, allowing simultaneous determination of IC50 of multiple compounds.” left out
as §2

IKKβ = IKKβ (Homo sapiens (Human), UniProt O14920); assay: KinaseProfiler radiometric assay (14-485KP); format: biochemical; details: mean of at least two independent experiments
Source text: as §1, §2

ACK1 = ACK1 (Homo sapiens (Human), UniProt Q07912); assay: KinaseProfiler radiometric assay (14-756KP); format: biochemical; details: mean of at least two independent experiments
Source text: as §1, with “In” for “In another aspect, disclosed is a method of inhibiting citron kinase in a sample, comprising contacting the sample with a compound described herein (e.g., a compound of formula (I) or a pharmaceutically acceptable salt thereof), or a pharmaceutical composition described herein (e.g., a pharmaceutical composition comprising a compound of formula (I) or a pharmaceutically acceptable salt thereof), in an amount effective to inhibit citron kinase. In”

[1] = target: NanoLuc-CITK (full-length human CITK) (Homo sapiens (Human), UniProt O14578); assay: NanoBRET intracellular target engagement assay; format: cell-based; details: for IC50: HEK293T cells transfected with NanoLuc-CITK, Tracer K10 1 μM, 2 hours
Method: In-cell Kd values were evaluated with a NanoBRET Target Engagement Assay essentially as recommended by the manufacturer (Promega Corporation—for details see https://www.promega.com/resources/technologies/nanoluc-luciferase-enzyme/cellular-target-engagement/).
HEK293T cells were transfected with 5.0 μg/mL sterile NanoLuc-CITK DNA, 5.0 μg/mL Transfection Carrier DNA, and 30 μL/mL FugeneHD® (Promega) in Opti-Mem™ (Thermo) media at a cell density of 250,000 cells/mL. […] 5 μL of the 25× Tracer K10 solution was added to each well. Next, designated inhibitors were prepared from powder as 10 mM DMSO stocks and then further diluted to 10× the final assay concentration in Opti-Mem™. 12-pt dose-response curves were prepared by 3×-serial dilution. […] A 3× Complete Substrate+Inhibitor solution, containing 6 mL of Opti-Mem™, 36 μL of NanoBRET Nano-Glo Substrate, and 12 μL Extracellular NanoLuc Inhibitor was freshly prepared for each plate. 50 μL of the 3× Complete Substrate+Inhibitor solution was added to all wells and the plate was incubated for 2 min with 500 RPM shaking. The bottom of the plates were covered with black plate seals and then measured on a Cytation 5 plate reader (Biotek) with a NanoBRET Filter Cube (Biotek; 450/50 emission & 610LP emission). Background corrected BRET ratios (in mBU) were calculated in Excel and IC50's were subsequently extracted using four-parameter non-linear regression in GraphPad Prism 8.

ROCK-2 = ROCK-2 (Homo sapiens (Human), UniProt O75116); assay: KinaseProfiler radiometric assay (14-451KP); format: biochemical; details: mean of at least two independent experiments
Source text: as §1, §2

DRAK2 = DRAK2 (Homo sapiens (Human), UniProt O94768); assay: KinaseProfiler radiometric assay (16-003KP); format: biochemical; details: mean of at least two independent experiments
Source text: as §1, with “In” for “In another aspect, disclosed is a method of inhibiting citron kinase in a sample, comprising contacting the sample with a compound described herein (e.g., a compound of formula (I) or a pharmaceutically acceptable salt thereof), or a pharmaceutical composition described herein (e.g., a pharmaceutical composition comprising a compound of formula (I) or a pharmaceutically acceptable salt thereof), in an amount effective to inhibit citron kinase. In”

AAK1 = AAK1 (Homo sapiens (Human), UniProt Q2M2I8); assay: KinaseProfiler radiometric assay (16-043KP); format: biochemical; details: mean of at least two independent experiments
Source text: as §1, with “Test compounds are incubated with kinase, substrate, required cofactors and radioisotope labeled ATP. Following incubation, unreacted radioactive ATP is removed by washing and incorporation of the radiolabeled phosphate into the kinase substrate is assayed to detect phosphoryltransferase activity, which is directly proportional to the amount of phosphorylated substrate. Inhibition of the kinase by a kinase inhibitor prevents phosphorylation of the substrate and thereby limits the incorporation of radiolabeled phosphate. Such an assay is compatible with a microwell assay format, allowing simultaneous determination of IC50 of multiple compounds.” left out
as §2

Citron kinase [2] = target: T1, Citron kinase (Homo sapiens (Human), UniProt O14578); assay: Radiometric citron kinase assay (Eurofins Cat #16-040KP); format: biochemical; details: mean of at least two independent assays; read-out: Radiometric CitK IC50
How it was run: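 Radiometric KinaseProfiler format: test compound incubated with kinase, substrate, cofactors and radiolabelled ATP; unreacted ATP washed away and radiolabelled phosphate incorporated into substrate measured. IC50 derived from inhibition of phosphorylation. Values are means of at least two independent assays.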

Mnk2 = Mnk2 (Homo sapiens (Human), UniProt Q9HBH9); assay: KinaseProfiler radiometric assay (14-664KP); format: biochemical; details: mean of at least two independent experiments
Source text: as §1, with “Test compounds are incubated with kinase, substrate, required cofactors and radioisotope labeled ATP. Following incubation, unreacted radioactive ATP is removed by washing and incorporation of the radiolabeled phosphate into the kinase substrate is assayed to detect phosphoryltransferase activity, which is directly proportional to the amount of phosphorylated substrate. Inhibition of the kinase by a kinase inhibitor prevents phosphorylation of the substrate and thereby limits the incorporation of radiolabeled phosphate. Such an assay is compatible with a microwell assay format, allowing simultaneous determination of IC50 of multiple compounds.” left out
as §2

BIKE = BIKE (Homo sapiens (Human), UniProt Q9NSY1); assay: KinaseProfiler radiometric assay (16-044KP); format: biochemical; details: mean of at least two independent experiments
Source text: as §1, with “Test compounds are incubated with kinase, substrate, required cofactors and radioisotope labeled ATP. Following incubation, unreacted radioactive ATP is removed by washing and incorporation of the radiolabeled phosphate into the kinase substrate is assayed to detect phosphoryltransferase activity, which is directly proportional to the amount of phosphorylated substrate. Inhibition of the kinase by a kinase inhibitor prevents phosphorylation of the substrate and thereby limits the incorporation of radiolabeled phosphate. Such an assay is compatible with a microwell assay format, allowing simultaneous determination of IC50 of multiple compounds.” left out
as §2

Citron kinase [3] = target: T1, Citron kinase; assay: TR-FRET citron kinase assay (Eurofins Cat #2628); format: biochemical; details: mean of at least two independent assays; read-out: TR-FRET CitK IC50
Source text: Compounds were screened for biochemical kinase activity (Eurofins Discovery, France) using one of two assays. […] All values in Table 1 are the mean of at least two independent assays.

VCaP cells = assay: Androgen-induced citron kinase expression, western blotting; format: cell-based; details: low doses of androgen, 48 hours
Method: (§3) FIG. 1A: LNCaP (top panel) and VCaP cells (bottom panel) were treated with increasing doses of the synthetic androgen R1881 for 48 hours. CIT and j-actin expression were analyzed by western blotting. FIG. 1B: LNCaP (left panel) and VCaP cells (right panel) were treated with increasing doses of the natural androgen dihydrotestosterone (DHT) and analyzed as for FIG. 1A.

LNCaP cells = assay: as above; format: cell-based; details: low doses of androgen, 48 hours
Method: as §3

Chain of NanoLuc-CITK (full-length human CITK) (O14578 other isoform, or with tags, fused parts or gaps): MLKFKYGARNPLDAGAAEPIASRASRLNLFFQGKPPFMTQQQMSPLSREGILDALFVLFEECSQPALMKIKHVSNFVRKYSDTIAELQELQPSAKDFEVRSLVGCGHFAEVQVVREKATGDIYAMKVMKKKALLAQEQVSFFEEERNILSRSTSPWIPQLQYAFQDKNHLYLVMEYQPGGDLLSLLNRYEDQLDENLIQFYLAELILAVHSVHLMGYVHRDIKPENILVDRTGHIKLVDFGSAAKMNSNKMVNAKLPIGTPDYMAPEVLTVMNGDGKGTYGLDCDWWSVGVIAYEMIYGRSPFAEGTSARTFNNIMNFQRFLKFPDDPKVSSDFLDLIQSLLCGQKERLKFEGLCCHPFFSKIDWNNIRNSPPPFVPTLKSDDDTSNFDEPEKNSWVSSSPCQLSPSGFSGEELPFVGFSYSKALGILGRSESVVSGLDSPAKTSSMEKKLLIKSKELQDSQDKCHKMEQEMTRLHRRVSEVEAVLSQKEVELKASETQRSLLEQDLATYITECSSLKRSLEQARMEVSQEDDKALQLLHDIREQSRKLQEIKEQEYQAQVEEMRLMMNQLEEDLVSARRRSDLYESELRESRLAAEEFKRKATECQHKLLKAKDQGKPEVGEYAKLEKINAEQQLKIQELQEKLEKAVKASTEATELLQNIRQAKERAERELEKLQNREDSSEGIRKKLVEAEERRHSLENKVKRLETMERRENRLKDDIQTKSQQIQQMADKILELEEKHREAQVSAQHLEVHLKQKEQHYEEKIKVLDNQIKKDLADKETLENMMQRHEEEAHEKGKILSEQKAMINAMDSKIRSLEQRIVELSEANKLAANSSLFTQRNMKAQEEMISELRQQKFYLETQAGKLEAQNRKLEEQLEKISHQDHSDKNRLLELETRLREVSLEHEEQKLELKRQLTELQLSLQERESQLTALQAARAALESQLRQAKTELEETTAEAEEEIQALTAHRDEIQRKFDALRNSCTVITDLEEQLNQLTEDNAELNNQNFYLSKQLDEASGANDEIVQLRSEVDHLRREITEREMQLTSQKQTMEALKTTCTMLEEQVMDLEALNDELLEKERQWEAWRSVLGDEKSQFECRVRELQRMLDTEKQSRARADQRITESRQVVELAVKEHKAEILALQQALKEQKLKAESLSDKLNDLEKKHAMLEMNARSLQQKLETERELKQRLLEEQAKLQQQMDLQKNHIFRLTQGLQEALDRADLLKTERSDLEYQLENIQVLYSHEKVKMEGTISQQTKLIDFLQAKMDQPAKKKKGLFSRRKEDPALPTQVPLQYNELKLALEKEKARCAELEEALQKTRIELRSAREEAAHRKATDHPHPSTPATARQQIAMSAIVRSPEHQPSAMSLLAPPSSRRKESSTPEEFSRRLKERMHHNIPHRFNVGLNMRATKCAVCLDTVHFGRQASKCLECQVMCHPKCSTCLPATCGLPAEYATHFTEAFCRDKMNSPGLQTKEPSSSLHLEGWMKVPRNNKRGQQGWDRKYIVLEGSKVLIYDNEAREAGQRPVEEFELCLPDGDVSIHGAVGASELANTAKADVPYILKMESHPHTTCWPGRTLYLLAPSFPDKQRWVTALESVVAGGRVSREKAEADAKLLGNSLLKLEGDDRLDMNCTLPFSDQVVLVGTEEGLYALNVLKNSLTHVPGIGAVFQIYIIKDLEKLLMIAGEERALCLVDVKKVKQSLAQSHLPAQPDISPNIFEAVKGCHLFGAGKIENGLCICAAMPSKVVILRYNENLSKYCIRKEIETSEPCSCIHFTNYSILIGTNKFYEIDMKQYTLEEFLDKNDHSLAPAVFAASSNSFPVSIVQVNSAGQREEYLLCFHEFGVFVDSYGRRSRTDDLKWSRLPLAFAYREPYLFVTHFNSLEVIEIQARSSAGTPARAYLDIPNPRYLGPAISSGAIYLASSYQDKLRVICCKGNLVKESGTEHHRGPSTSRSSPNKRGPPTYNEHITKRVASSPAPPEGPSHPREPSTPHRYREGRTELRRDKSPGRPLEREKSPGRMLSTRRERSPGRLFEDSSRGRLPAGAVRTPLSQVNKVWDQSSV
Chain of AUR-B (Q96GD4 whole entry): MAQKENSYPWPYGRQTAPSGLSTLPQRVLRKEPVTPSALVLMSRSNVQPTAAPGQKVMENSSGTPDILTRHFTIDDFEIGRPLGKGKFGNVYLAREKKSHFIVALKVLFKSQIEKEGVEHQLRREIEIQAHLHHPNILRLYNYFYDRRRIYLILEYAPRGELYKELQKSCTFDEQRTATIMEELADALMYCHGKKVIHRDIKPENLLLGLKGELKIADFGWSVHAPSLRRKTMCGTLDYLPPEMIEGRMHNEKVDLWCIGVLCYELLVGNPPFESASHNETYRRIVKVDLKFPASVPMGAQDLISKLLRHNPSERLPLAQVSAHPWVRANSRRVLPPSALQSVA
T1 sequence (O14578 whole entry): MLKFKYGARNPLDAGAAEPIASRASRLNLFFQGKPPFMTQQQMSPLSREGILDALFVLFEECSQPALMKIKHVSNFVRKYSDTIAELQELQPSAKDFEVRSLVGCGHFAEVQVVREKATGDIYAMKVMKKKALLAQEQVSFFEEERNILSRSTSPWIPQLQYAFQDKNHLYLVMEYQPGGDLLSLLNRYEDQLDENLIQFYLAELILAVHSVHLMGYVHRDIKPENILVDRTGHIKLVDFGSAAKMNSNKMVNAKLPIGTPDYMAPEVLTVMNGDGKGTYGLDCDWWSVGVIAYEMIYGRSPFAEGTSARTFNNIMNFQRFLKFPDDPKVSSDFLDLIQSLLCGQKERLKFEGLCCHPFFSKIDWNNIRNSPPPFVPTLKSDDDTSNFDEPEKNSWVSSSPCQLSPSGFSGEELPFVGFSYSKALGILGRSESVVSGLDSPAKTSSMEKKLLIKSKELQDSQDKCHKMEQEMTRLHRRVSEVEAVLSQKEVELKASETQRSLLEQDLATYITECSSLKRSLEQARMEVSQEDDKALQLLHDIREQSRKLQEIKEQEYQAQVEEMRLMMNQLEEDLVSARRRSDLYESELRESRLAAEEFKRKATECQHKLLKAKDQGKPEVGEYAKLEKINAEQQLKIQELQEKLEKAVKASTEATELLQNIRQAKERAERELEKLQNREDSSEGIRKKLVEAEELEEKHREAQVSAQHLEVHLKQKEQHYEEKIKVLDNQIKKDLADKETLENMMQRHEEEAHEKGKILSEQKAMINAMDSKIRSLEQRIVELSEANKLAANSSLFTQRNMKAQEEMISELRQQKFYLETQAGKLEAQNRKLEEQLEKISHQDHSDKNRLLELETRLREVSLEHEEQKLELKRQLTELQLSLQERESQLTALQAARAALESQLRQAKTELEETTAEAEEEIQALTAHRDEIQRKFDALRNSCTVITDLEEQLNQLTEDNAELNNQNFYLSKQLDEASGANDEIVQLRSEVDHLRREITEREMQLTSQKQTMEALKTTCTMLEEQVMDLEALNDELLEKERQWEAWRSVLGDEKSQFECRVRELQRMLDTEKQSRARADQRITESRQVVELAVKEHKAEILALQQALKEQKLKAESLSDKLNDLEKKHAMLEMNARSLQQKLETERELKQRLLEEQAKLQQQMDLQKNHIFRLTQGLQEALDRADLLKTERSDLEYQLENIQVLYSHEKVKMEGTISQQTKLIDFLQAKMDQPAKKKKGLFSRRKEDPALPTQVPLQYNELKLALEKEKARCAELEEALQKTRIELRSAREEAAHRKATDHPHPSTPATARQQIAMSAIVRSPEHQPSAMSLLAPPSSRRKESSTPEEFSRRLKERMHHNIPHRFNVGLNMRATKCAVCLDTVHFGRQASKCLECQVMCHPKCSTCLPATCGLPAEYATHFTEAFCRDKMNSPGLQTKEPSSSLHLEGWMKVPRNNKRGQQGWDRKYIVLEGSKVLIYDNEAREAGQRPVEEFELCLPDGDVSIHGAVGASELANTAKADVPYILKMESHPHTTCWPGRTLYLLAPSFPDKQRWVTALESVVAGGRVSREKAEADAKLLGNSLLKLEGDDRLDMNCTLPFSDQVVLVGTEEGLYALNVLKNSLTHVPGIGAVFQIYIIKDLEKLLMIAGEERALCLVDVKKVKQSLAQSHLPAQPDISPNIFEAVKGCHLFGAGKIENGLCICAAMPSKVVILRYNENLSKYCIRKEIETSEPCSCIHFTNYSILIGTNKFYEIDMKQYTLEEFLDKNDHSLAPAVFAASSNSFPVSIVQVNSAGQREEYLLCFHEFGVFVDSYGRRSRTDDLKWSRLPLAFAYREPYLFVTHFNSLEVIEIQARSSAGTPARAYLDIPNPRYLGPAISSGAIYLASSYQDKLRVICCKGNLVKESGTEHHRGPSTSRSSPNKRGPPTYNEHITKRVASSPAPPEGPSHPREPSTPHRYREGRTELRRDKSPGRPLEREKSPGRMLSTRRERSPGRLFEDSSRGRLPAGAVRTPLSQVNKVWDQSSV
Chain of AKT-1 (P31749 whole entry): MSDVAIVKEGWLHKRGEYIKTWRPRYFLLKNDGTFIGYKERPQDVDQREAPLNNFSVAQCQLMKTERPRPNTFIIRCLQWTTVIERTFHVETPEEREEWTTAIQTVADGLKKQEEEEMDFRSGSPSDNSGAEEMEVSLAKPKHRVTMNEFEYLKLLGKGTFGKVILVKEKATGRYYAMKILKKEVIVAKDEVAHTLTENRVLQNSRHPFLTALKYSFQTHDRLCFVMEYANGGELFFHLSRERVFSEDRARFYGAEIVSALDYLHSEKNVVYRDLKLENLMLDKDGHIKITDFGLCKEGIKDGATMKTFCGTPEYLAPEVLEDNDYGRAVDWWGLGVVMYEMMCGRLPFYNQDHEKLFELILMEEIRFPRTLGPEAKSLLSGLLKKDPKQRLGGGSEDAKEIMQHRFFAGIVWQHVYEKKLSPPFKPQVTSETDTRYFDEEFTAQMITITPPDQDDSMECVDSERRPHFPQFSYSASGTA

N[C@H](Cc1ccccc1)C(=O)Nc1ccc(-c2ccnc3[nH]ccc23)cc1 [Compound F-33, (R)-N-(4-(1H-pyrrolo[2,3-b]pyridin-4-yl)phenyl)-2-amino-3-phenylpropanamide]
IC50 (PKAα): 3 nM | IC50 (AUR-B): 104 nM | IC50 (TRK-B): 332 nM | IC50 (ROCK-1): 107 nM | IC50 (AKT-1): 436 nM

Cc1cc2c(-c3ccc(NC(=O)[C@H](N)C(C)(C)O)cc3C)ccnc2[nH]1 [Compound F-140, (2R)-2-Amino-3-hydroxy-3-methyl-N-[3-methyl-4-(2-methyl-1H-pyrrolo[2,3-b]pyridin-4-yl)phenyl]butanamide]
IC50 (PKAα): > 3000 nM | IC50 (HIPK4): > 3 µM | IC50 (IKKβ): > 3000 nM | IC50 (ACK1): > 3 µM | Kd [1]: 108 nM | IC50 [1]: 580 nM | IC50 (ROCK-2): > 3000 nM | IC50 (DRAK2): > 3 µM | IC50 (AAK1): 1910 nM | IC50 (Citron kinase [2]): 40 nM | IC50 (Mnk2): 1990 nM | IC50 (BIKE): > 3 µM

Cc1c[nH]c2nccc(-c3ccc(NC(=O)C(N)Cc4ccccc4)cc3)c12 (stereo not drawn) [Compound F-135, 2-Amino-N-[4-(3-methyl-1H-pyrrolo[2,3-b]pyridin-4-yl)phenyl]-3-phenyl-propanamide]
IC50 (Citron kinase [3]): 392 nM

CC(C)C[C@@H](N)C(=O)Nc1ccc(-c2ccnc3[nH]ccc23)cc1 [Compound F-9, (2R)-2-Amino-4-methyl-N-[4-(1H-pyrrolo[2,3-b]pyridin-4-yl)phenyl]pentanamide]
IC50 (PKAα): 7 nM | IC50 (IKKβ): 111 nM | IC50 (AUR-B): 230 nM | Kd [1]: 13 nM | IC50 [1]: 67 nM | IC50 (ROCK-2): 18 nM | IC50 (TRK-B): > 3000 nM | IC50 (Citron kinase [3]): 4.9 nM | IC50 (ROCK-1): 230 nM | IC50 (AKT-1): 761 nM | IC50 (Citron kinase [2]): 12.5 nM

NC(C(=O)Nc1ccc(-c2ccnc3[nH]ccc23)cc1)C1CC1 (stereo not drawn) [Compound F-18, 2-Amino-2-cyclopropyl-N-[4-(1H-pyrrolo[2,3-b]pyridine-4-yl)phenyl]acetamide]
IC50 (Citron kinase [3]): 120 nM

CC(C)C[C@H](N)C(=O)Nc1ccc(-c2ccnc3[nH]ccc23)cc1 [Compound F-8, (2S)-2-Amino-4-methyl-N-[4-(1H-pyrrolo[2,3-b]pyridin-4-yl)phenyl]pentanamide]
IC50 (Citron kinase [3]): 29.9 nM | IC50 (Citron kinase [2]): 54.1 nM

C[C@]1(O)CC[C@H]2[C@@H]3CCC4=CC(=O)CCC4=C3C=C[C@@]21C [Compound R1881]
citron kinase expression (VCaP cells): significant increase | citron kinase expression (LNCaP cells): significant increase

N[C@@H](Cc1ccccc1)C(=O)Nc1ccc(-c2ccnc3[nH]ccc23)cc1 [Compound F-32, (S)-N-(4-(1H-pyrrolo[2,3-b]pyridin-4-yl)phenyl)-2-amino-3-phenylpropanamide]
IC50 (PKAα): 7 nM | IC50 (AUR-B): 156 nM | IC50 (TRK-B): 469 nM | IC50 (ROCK-1): 119 nM | IC50 (AKT-1): 1100 nM
